The test system of data set [1] is RENCA tumors. Nature of the data set: Growth of RENCA renal carcinoma tumors in retired mice. Type of data set: in vivo. As to the method:
1% CMC/0.5% Tween-80 (CMCT) was prepared by adding 960 mL of distilled water to a 1000 mL Pyrex® glass bottle with a stir bar in the bottom, and was used as the oral vehicle. […] Carboxymethylcellulose (5 g, CMC, low viscosity, Sigma C5678, Batch #033K0008) was added slowly, over one hour. The solution was stirred until the CMC dissolved and the solution was clear. 30 mg/kg MEK162 (Binimetinib, 100% active) was prepared as a white, homogeneous suspension in CMCT. MEK162 was administered in 10 mL/kg and dosed at 30 mg/kg (3.0 mg/mL) by oral gavage. To prepare, dry test compound (90 mg) was weighed and 30 mL CMCT added. Dose suspension was sonicated until a fine suspension was achieved (˜15 min). Final dose suspension was stored at 4° C. during live phase and sonicated to resuspend prior to dose administration. Dose suspension was prepared every 4-5 days or as needed. […] The antibody was administered at 100 μg/animal (100 μL of a 1 mg/mL dose solution) by intraperitoneal injection.
(§1) Male BALB/c mice from Charles River (Wilmington, Mass.) were obtained at 6-8 weeks of age and housed in groups of 5. Following a two week acclimation period, a suspension of 1×10^5 cells in a volume of 100 μL saline was implanted subcutaneously on the right flank of the animal near the axillary region. Animals were then randomly assigned to treatment groups. Treatment was initiated on day 4 after CT26 tumor cell inoculation to allow for a sufficient treatment window. MEK162 was administered once daily (QD) for 14 consecutive days by oral gavage (PO) at 30 mg/kg and anti-PD1 antibody was administered twice weekly by intraperitoneal injection (IP) (Table 4).
(§2) The combination was evaluated as concomitant administration or sequential where MEK162 treatment was initiated at the time that tumor resistance from anti-PD1 treatment emerged. For the sequential treatment group, animals were enrolled in MEK162 treatment when tumors reached 350-400 mm^3 after anti-PD1 antibody therapy was initiated.
(§3) Animals were monitored for tumor growth and body weight 2-3 times per week based on outgrowth kinetics. Tumor diameter was measured with digital calipers, and the tumor volume in mm^3 was calculated by the formula: Volume=((width)^2×length)/2. TGI was calculated on day 15. Animals were removed from study if found moribund or if tumor volume exceeded 1400 mm^3. At that time, tumor tissue was harvested and frozen for later analysis of T-cell clonality by immune sequencing (Adaptive Biotech, San Diego, Calif.).
Survival defined as morbidity, mortality or tumor size exceeding 1400 mm3. […] Cures: Animals with no palpable tumor at the end of the study were scored as cures. Maximum % Body Weight Loss (% BWL): % BWL=100(1−BWt/BW0); BW0 is group mean body weight at study start and BWt is group mean or median body weight on day where maximal body weight loss is observed. Tx-Related Deaths: Death occurring during live phase specifically due to drug administration and not attributable to other causes (e.g. gavage trauma, tumor-related morbidity, etc.)
For mice that were injected subcutaneously with RENCA cells, retired female breeders were used (23 weeks old). 200 μg of αPD-1 was administered on days 1, 4, 8 and 11.

The test system of data set [2] is KRas mutant CT26 syngeneic tumors. Nature of the data set: Growth of KRas mutant CT26 murine colon syngeneic tumors. It is filed as in vivo. The settings on record: for Cures (day 61): animals with no palpable tumor at study end. As to the method:
1% CMC/0.5% Tween-80 (CMCT) was prepared by adding 960 mL of distilled water to a 1000 mL Pyrex® glass bottle with a stir bar in the bottom, and was used as the oral vehicle. The water was warmed to 50-60° C. then 5 mL Tween® 80 (polyoxyethylenesorbitan monooleate, Sigma P2287, batch #054K0154) and 15.6 mL benzyl alcohol (Sigma 402834, Batch #00296PK) added. Carboxymethylcellulose (5 g, CMC, low viscosity, Sigma C5678, Batch #033K0008) was added slowly, over one hour. The solution was stirred until the CMC dissolved and the solution was clear. 30 mg/kg MEK162 (Binimetinib, 100% active) was prepared as a white, homogeneous suspension in CMCT. MEK162 was administered in 10 mL/kg and dosed at 30 mg/kg (3.0 mg/mL) by oral gavage. To prepare, dry test compound (90 mg) was weighed and 30 mL CMCT added. Dose suspension was sonicated until a fine suspension was achieved (˜15 min). Final dose suspension was stored at 4° C. during live phase and sonicated to resuspend prior to dose administration. Dose suspension was prepared every 4-5 days or as needed. 100 μg αPD-1 RMP1-14, Rat IgG2a isotype (BioXCell cat.no. BP0146, lot #5792×2/1015)−7.12 mg/mL stock concentration. RMP1-14 was prepared by dilution of 0.843 stock solution with 5.157 mL sterile saline for injection. The antibody was administered at 100 μg/animal (100 μL of a 1 mg/mL dose solution) by intraperitoneal injection.
as §1, §2
as §3, with “TGI was calculated on day 15.” left out, “Calif.). Food, water, temperature and humidity were according to Pharmacology Testing Facility performance standards (SOP's) which are in accordance with the 1996 Guide for the Care and Use of Laboratory Animals (NRC) and AAALAC-International.” for “Calif.).”
The murine CT26 cell line (a.k.a. Colon 26 or Colon Tumor #26) was developed in 1975 by exposing BALB/c mice to N-nitroso-N-methylurethane-(NNMU) (Corbett et al., 1975). The undifferentiated colon carcinoma cell line with fibroblast morphology was isolated from BALB/c mice. Extensive genomics, immune phenotyping and therapeutic background are available on this cell line (information summarized from Bhadury et al., 2013, Castle et al., 2014). The cell line is reported to harbor a KRas G12D mutation and the in-house cell line was sequenced and found to match the reported mutation (BGI, Cambridge, Mass.). Literature reports expression of MHC class I but not II and a mutational load of 1688 non-synonymous point mutations; 154 are both in expressed genes and in peptides predicted to bind MHC. […]

Results on 1 compound are retold here after patent US20200368205A1, “METHODS AND COMBINATION THERAPY TO TREAT CANCER” (ARRAY BIOPHARMA INC., priority 2018, published 2020).

The structures appear in SMILES notation.

Regarding `Cn1cnc2c(F)c(Nc3ccc(Br)cc3F)c(C(=O)NOCCO)cc21` [Binimetinib, 6-(4-bromo-2-fluorophenylamino)-7-fluoro-3-methyl-3H-benzoimidazole-5-carboxylic acid (2-hydroxyethoxy)-amide], in data set [1] (retired mice), the “Cures (day 43)” value is 0/12. Also, the “% TGI (day 18)” value in data set [1] (retired mice (23 weeks of age), binimetinib 30 mg/kg, αPD-1 200 μg days 1, 4, 8 and 11) is listed as 25%. In addition, the Deaths in data set [1] (retired mice, vehicle 9/12) is recorded as 10/12; in data set [2] (BALB/c mice) it was 0/10. For the same compound, the “Maximum % BWL” value in data set [1] (retired mice, vehicle 15.1) is 23.3%. The “Median Survival” value in data set [1] (retired mice, vehicle 21) turned out to be 24; in data set [2] (BALB/c mice, vehicle 18 days) it was 26 days. Moreover, the “% TGI (Day 13)” value in data set [2] (BALB/c mice, MEK162 30 mg/kg PO QD x14, anti-PD1 100 μg IP D 1, 4, 8, 11) was found to be 43%; in data set [2] (BALB/c mice, MEK162 30 mg/kg PO QD x14, anti-PD1 100 μg IP D 1, 4, 8, 11, 30 mg/kg), 43%. Further, the “Max % BWL” value in data set [2] (BALB/c mice, maximum body weight loss) is 0.6%. The “Cures (day 61)” value was 0/10 in data set [2] and “no cures” in data set [2] (listed as MEK162).
